In patent EP2173340B1, “METHODS OF ENHANCING COGNITIVE FUNCTION USING NON-PEPTIDIC COMPOUNDS” (Acumen Pharmaceuticals, Inc., priority 2007, dated 2009):

Key:
Aβ1-42 = biological target: T1, Aβ1-42 (Homo sapiens, UniProt P05067); test: FRET assay of Aβ1-42 oligomer (ADDL) formation; assay type: biochemical; settings: for IC50: assay of Example 1, 0.2 µM FITC-Aβ(1-42) and 0.8 µM Aβ(1-42), 100 mM MgCl2, pH 8.0, 37°C
T1 construct: containing 0.2 µM FITC-Aβ(1-42) and 0.8 µM Aβ(1-42)
Text: Fluorescence (or Förster) Resonance Energy Transfer (FRET) is a distance-dependent, non-radiative transfer of energy in which the de-excitation of one fluorophore (donor) is coupled to excitation of another fluorophore (acceptor). FRET occurs if (1) the quantum of energy emitted by a donor fluorophore corresponds to an acceptor fluorophore's excitation energy, (2) the orientations of donor and acceptor transition dipoles are nearly parallel and (3) the donor fluorescent emission spectrum overlaps the acceptor absorption spectrum.
In this assay, Aβ1-42 oligomer formation is monitored by FRET using N-terminal conjugates of fluorescein-Aβ1-42 as both the donor and acceptor fluorophore (fluorescein-fluorescein Ro∼45 Å). […] Inhibition of Aβ1-42 assembly is observed as the absence or attenuation of fluorescein quenching.
FRET and FP assays are performed in 384-well Coming Non-Binding Surface, black, opaque microtiter plates, and the assay buffer consists of 50 mM MOPS-Tris (pH 8.0) with 100 mM MgCl2. […] ADDL assembly is monitored on a Tecan GENios Pro plate reader, exciting at a wavelength of 485 nm and detecting emission at a wavelength of 515 nm. Kinetic traces are collected by recording fluorescence intensity and polarization readings every five minutes over about three to about a six-hour time course. […] Positive control reactions contain all buffer components in the absence of added small molecule or antibody reagents. […]

Aβ1-42 ADDLs = biological target: T2, Aβ1-42 ADDLs (Homo sapiens, UniProt P05067); test: Alternating Lever Cyclic Ratio (ALCR) rat model; assay type: in vivo; settings: for Approach Errors Mean / Perseveration Errors Mean: 20 µl via cannula aimed at lateral ventricle, tested about 3 hours following injection, base line error rate equalized to 1.00
T2 construct: Synthetic Aβ1-42 powder was dissolved in 1,1,1,3,3,3 hexafluorisopropanol (HFIP)
Protocol: Preparations of Aβ1-42 ADDLs and a potential therapeutic compounds under the Alternating Lever Cyclic Ratio (ALCR) rat model of AD were tested. This highly sensitive model has been able to detect cognitive deficits due to direct injection of cell-derived Aβ oligomers into rat brain. In this study, a direct injection of ADDLs made from synthetic Aβ1-42 and a putative therapeutic compound under the ALCR procedure were tested.
The ALCR test has proven to be much more sensitive than previously published methods for measuring drug effects on cognitive function. In this task, rats must learn a complex sequence of lever-pressing requirements in order to earn food reinforcement in a two-lever experimental chamber. Subjects must alternate between two levers by switching to the other lever after pressing the first lever enough to get food reward. The exact number of presses required for each food reward changes, first increasing from 2 responses per food pellet up to 56 presses per food pellet, then decreasing back to 2 responses per pellet. Intermediate values were based on the quadratic function, x^2 - x. One cycle was an entire ascending and descending sequence of these lever press requirements (e.g., 2, 6, 12, 20, 30, 42, 56, 56, 42, 30, 20, 12, 6, and 2 presses per food reward). Six such full cycles were presented during each daily session.
Synthetic Aβ1-42 powder was dissolved in 1,1,1,3,3,3 hexafluorisopropanol (HFIP) to afford a solution of Aβ1-42 in HFIP of about 1 mM and allowed to incubate at ambient temperature for about 1 h. The resulting solution was chilled on ice for about 5-10 min, then aliquoted into eppendorf tubes to provide about 50 µl of solution per tube. The tubes were then placed in a chemical fume hood and allowed to stand overnight to allow the HFIP to evaporate under a slow stream of nitrogen. To removed final traces of HFIP, the tubes were subjected to two SpeedVac cycles of 15 min at room temperature and about 15 to 25 in Hg of vacuum. The resulting films of monomerized Aβ1-42 peptide were stored over desiccant at -80 °C until used.
A tube of monomerized Aβ1-42 peptide was warmed to room temperature and the Aβ1-42 peptide was dissolved in anhydrous DMSO to afford a peptide stock DMSO solution containing about 10 µM to about 100 µM Aβ1-42 peptide in DMSO.
2 µl of a 20 mM stock solution of test compound in anhydrous DMSO is added to 998 µl of neural basal media (phenol red free, Gibco 12348-017) to give a compound neural basal media solution containing 40 µM of test compound in neural basal media.
For the Aβ1-42 peptide only treatment, peptide stock DMSO solution is added to 37 °C neural basal to obtain the requisite Aβ1-42 peptide monomer concentration, provided that the maximum concentration of DMSO is 1% or less, and the tube is vortexed for 30 to 60 seconds, spun down briefly in a microfuge and incubated at 37 °C for 15 min prior to the start of injections.
For the Aβ1-42 peptide plus test compound treatment, peptide stock DMSO solution is added to 37 °C compound neural basal media solution to obtain the requisite Aβ1-42 peptide monomer concentration, provided that the maximum concentration of DMSO is 1% or less, and the tube is vortexed for 30 to 36 seconds, spun down briefly in a microfuge and incubated at 37 °C for 15 min prior to the start of injections.
For control injections, compound neural basal media solution is incubated at 37 °C for 15 min prior to the start of injections.
Rats: Rats were trained under ALCR until their error rates were stable. Once the rats were placed upon the final ALCR procedure, training sessions were conducted 7 days each week until the end of the study.
Surgery: All rats received a single 28 ga cannula, which was permanently affixed to the skull, and aimed at the lateral ventricle. Half the rats received cannula in the right ventricle and half received cannula in the left ventricle. Rats were allowed 5 days to recover from surgery before training resumed. […]

[1] = compound combined with Aβ1-42 ADDLs

T1 sequence (P05067 672-713 limits assumed): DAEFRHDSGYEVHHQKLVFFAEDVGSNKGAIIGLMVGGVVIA
T2 sequence (P05067 672-713 limits assumed): as above

Compound	IC50 (Aβ1-42) [µM]	other results
CCCC1=NN(C(=O)C(=O)Nc2ccc(Br)cc2)C(O)(C(F)(F)F)C1 (centres unmarked) [Compound 15, N-(4-bromophenyl)-2-(5-hydroxy-3-propyl-5-(trifluoromethyl)-4,5-dihydro-1H-pyrazol-1-yl)-2-oxoacetamide]	7.8	–
CCCCC1=NN(C(=O)C(=O)NCCc2ccccc2)C(O)(C(F)(F)F)C1 (centres unmarked) [Compound 16, 2-(3-butyl-5-hydroxy-5-(trifluoromethyl)-4,5-dihydro-1H-pyrazol-1-yl)-2-oxo-N-phenethylacetamide]	38.8	–
CCOC(=O)c1c(NC(=O)C(=O)N/N=C/c2ccccc2O)sc2c1CCC(C)C2 (centres unmarked) [Compound 7, 2-{[1-(2-Hydroxyphenyl)-meth-(E)-ylidene-hydrazinooxalyl]-amino} -6-methyl-4,5,6,7-tetrahydro-benzo[b]thiophene-3-carboxylic acid ethyl ester]	–	inhibition of Aβ1-42 oligomer assembly (Aβ1-42; 1 mM Aβ1-42 total monomer, 100 mM MgCl2, compound ranging from 0.05 to 3 mM, FIG. 1): dose dependent inhibition
CC(C)CC1=NN(C(=O)C(=O)NCCc2ccccc2)C(O)(C(F)(F)F)C1 (centres unmarked) [Compound 17, 2-(5-hydroxy-3-isobutyl-5-(trifluoromethyl)-0,5-dihydro-1H-pyrazol-1-yl)-2-oxo-N-phenethylacetamide]	41.3	–
CCCCCC1=NN(C(=O)C(=O)Nc2ccc(OC)cc2)C(O)(C(F)(F)F)C1 (centres unmarked) [Compound 19, 2-(5-hydroxy-3-pentyl-5-(trifluoromethyl)-4,5-dihydro-1H-pyrazol-1-yl)-N-(4-methoxyphenyl)-2-oxoacetamide]	8.7	–
CCCCCC1=NN(C(=O)C(=O)Nc2ccc(Br)cc2)C(O)(C(F)(F)F)C1 (centres unmarked) [Compound 18, N-(4-bromophenyl)-2-(5-hydroxy-3-pentyl-5-(trifluoromethyl)-4,5-dihydro-1H-pyrazol-1-yl)-2-oxoacetamide]	11.6	–
O=C(C/C(=N/NC(=O)c1ccccc1O)C(F)(F)F)c1cccs1 [Compound 2, 2-Hydroxy-benzoic acid [3-oxo-3-thiophen-2-yl-1-trifluoromethyl-prop-(Z)-ylidene]-hydrazide]	26	–
O=C(N/N=C/c1cc(Br)cc(Br)c1O)c1ccccc1O [Compound 26, (E)-N'-(3,5-dibromo-2-hydroxybenzylidene)-2-hydroxybenzohydrazide]	5.8	–
COc1ccccc1NC(=O)C(=O)N1N=C(C2CCCCC2)CC1(O)C(F)(F)F (centres unmarked) [Compound 23, 2-(3-cyclohexyl-5-hydroxy-5-(trifluoromethyl)-4,5-dihydro-1H-pyrazol-1-yl)-N-(2-methoxyphenyl)-2-oxoacetamide]	29.1	–
CCC1=NN(C(=O)C(=O)Nc2ccccc2OC)C(O)(C(F)(F)F)C1 (centres unmarked) [Compound 8, 2-(3-ethyl-5-hydroxy-5-(trifluoromethyl)-4,5-dihydro-1H-pyrazol-1-yl)-N-(2-methoxyphenyl)-2-oxoacetamide]	7	–
CC(C)CCC1=NN(C(=O)C(=O)NCCc2ccccc2)C(O)(C(F)(F)F)C1 (centres unmarked) [Compound 20, 2-(5-hydroxy-3-isopentyl-5-(trifluoromethyl)-4,5-dihydro-1H-pyrazol-1-yl)-2-oxo-N-phenethylacetamide]	17	–
NCCCS(=O)(=O)O [Alzhemed, 3-amino-1-propanesulfonic acid, reference compound]	–	inhibition of Aβ1-42 monomer assembly into Aβ oligomers (Aβ1-42; standard FRET assay conditions of Example 1, comparative example, FIG 2): inability
COc1ccccc1NC(=O)C(=O)N1N=C(C(C)C)CC1(O)C(F)(F)F (centres unmarked) [Compound 10, 2-(5-hydroxy-3-isopropyl-5-(trifluoromethyl)-4,5-dihydro-1H-pyrazol-1-yl)-N-(2-methoxyphenyl)-2-oxoacetamide]	24.3	–
CCCC1=NN(C(=O)C(=O)Nc2ccccc2OC)C(O)(C(F)(F)F)C1 (centres unmarked) [Compound 9, 2-(5-hydroxy-3-propyl-5-(trifluoromethyl)-4,5-dihydro-1H-pyrazol-1-yl)-N-(2-methoxyphenyl)-2-oxoacetamide]	6.4	–
Aβ1-42 ADDLs: ADDLs made from synthetic Aβ1-42; soluble, oligomeric, globular, non-fibrillar, neurotoxic Aβ1-42 peptides	–	Approach Errors Mean (Aβ1-42 ADDLs; injectate given alone): 1.02; Perseveration Errors Mean (Aβ1-42 ADDLs; injectate given alone): 1.33; Perseveration Error rate (Aβ1-42 ADDLs; versus baseline error rates, ADDLs alone, result in words): significantly increased
O=C(N/N=C/c1c(O)ccc2ccccc12)c1ccccc1O [Compound 24, (E)-2-hydroxy-N'-((2-hydroxynaphthalen-1-yl)methylene) benzohydrazide]	–	increase in Perseveration Errors (Aβ1-42 ADDLs; combined with the requisite concentration of Aβ1-42 ADDLs, result in words): eliminated the increase in Perseveration Errors; Approach Errors Mean (Aβ1-42 ADDLs; [1]): 1.00; Perseveration Errors Mean (Aβ1-42 ADDLs; [1]): 0.92; error rates (Aβ1-42 ADDLs; given alone, result in words): did not increase error rates; Approach Errors Mean (Aβ1-42 ADDLs; injectate given alone): 0.96; Perseveration Errors Mean (Aβ1-42 ADDLs; injectate given alone): 0.95
CCC1=NN(C(=O)C(=O)Nc2ccc(Br)cc2)C(O)(C(F)(F)F)C1 (centres unmarked) [Compound 13, N-(4-bromophenyl)-2-(3-ethyl-5-hydroxy-5-(trifluoromethyl)-4,5-dihydro-1H-pyrazol-1-yl)-2-oxoacetamide]	17	–
CCCC1=NN(C(=O)c2ccccc2O)C(O)(C(F)(F)F)C1 (centres unmarked) [Compound 12, (5-hydroxy-3-propyl-5-(trifluoromethyl)-4,5-dihydro-1H-pyrazol-1-yl)(2-hydroxyphenyl)methanone]	8.5	–
O=C(N/N=C/c1cc(Br)ccc1O)c1ccccc1O [Compound 27, (E)-N'-(5-bromo-2-hydroxybenzylidene)-2-hydroxybenzohydrazide]	19.3	–
CCCCCCC1=NN(C(=O)C(=O)Nc2ccc(OC)cc2)C(O)(C(F)(F)F)C1 (centres unmarked) [Compound 22, 2-(3-hexyl-5-hydroxy-5-(trifluoromethyl)-4,5-dihydro-1H-pyrazol-1-yl)-N-(4-methoxyphenyl)-2-oxoacetamide]	8.2	–
CCCC1=NN(C(=O)C(=O)NCCc2ccccc2)C(O)(C(F)(F)F)C1 (centres unmarked) [Compound 14, 2-(5-hydroxy-3-propyl-5-(trifluoromethyl)-4,5-dihydro-1H-pyrazol-1-yl)-2-oxo-N-phenethylacetamide]	34.4	–
O=C(C/C(=N/NC(=O)c1ccccc1O)C(F)(F)F)c1ccco1 [Compound 3, 2-Hydroxy-benzoic acid [3-oxo-3-furan-2-yl-1-trifluoromethyl-prop-(Z)-ylidene)-hydrazide]	13.5	–
